Laboratory results taken from PMC9274004, “Deciphering the Molecular Interaction Between the Adhesion G Protein-Coupled Receptor ADGRV1 and its PDZ-Containing Regulator PDZD7” (Frontiers in Molecular Biosciences, 2022).
Where no end group is shown, it is not given here.

Target: T1, PDZD7 N-PDZ1ext (Mus musculus, UniProt E9Q9W7)
T1 construct: including the N-terminus of the protein (N-PDZ1ext construct; M1-E192); GST (followed by TEV site) (N, cleaved yes); made in house; host or cells: E. coli BL21 DE3
T1 sequence (E9Q9W7 1-192): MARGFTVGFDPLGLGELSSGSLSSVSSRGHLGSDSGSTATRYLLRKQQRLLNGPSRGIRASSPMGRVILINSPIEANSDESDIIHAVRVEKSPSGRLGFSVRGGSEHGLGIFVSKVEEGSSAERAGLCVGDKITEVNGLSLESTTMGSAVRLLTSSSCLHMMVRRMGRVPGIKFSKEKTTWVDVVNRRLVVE
Assay: NMR titration of N-PDZ1ext with ADGRV1 ligands
Format: binding, murine
Conditions: NMR titration, 25°C; SD over at least ten shifting peaks; read-out: Kd (Peptide)
Method: All experiments were recorded at 25°C on a Bruker 800 MHz spectrometer equipped with a triple resonance ^1H{^13C/^15N} cryoprobe. The ^1H, ^15 N and ^13C backbone resonances assignment of PDZ1ext was carried out using 3D HNCA, HNCACB, HNCO, HNCOCA experiments (Tris HCl buffer adjusted to pH 6). The 2D ^1H-^15N HSQC spectra used to compare PDZ1, PDZ1ext, PDZ2 and PDZ2ext were recorded in Tris HCl pH 7.5 (50 mM). The 2D ^1H-^15N HSQC spectra used to compare PDZ1ext, PDZ2ext and P1P2 were recorded in Phosphate Buffer pH 6.5 (50 mM). Titration experiments of PDZ1 (WT), PDZ1ext (WT) and PDZ1ext (G103R) against ADGRV1pbm peptide were performed in Tris HCl pH 7.5 (50 mM). Averaged Chemical Shifts Perturbations (CSP) were calculated as: Δδavg = ((Δδ(^1H))^2+(Δδ(^15N)*0.159)^2)^½. For the determination of dissociation constants (Kd) of each peptide/PDZ interaction, averaged CSP δavg was plotted as a function of the molar ratio (peptide/PDZ) for several peaks and fitted using nonlinear regression and assuming a simple complex formation model.
The P1P2 tandem of PDZD7 is preceded by 80 residues with no predicted secondary or tertiary structure, but which could contribute to the interaction with ADGRV1. […] We first aimed at identifying potential secondary structures in both PDZD7 N-terminal region and ADGRV1 cytoplasmic domain. To this end, we produced both an extended PDZ1ext construct, including the N-terminus of the protein (N-PDZ1ext construct; M1-E192) and the whole ADGRV1 cytoplasmic domain of 152 residues.
On the overlay of PDZ1ext and N-PDZ1ext HSQC spectra, there is no significant chemical shift changes on PDZ1ext due to the presence of the N-terminal region (CSPs <0.04 ppm). […] We used the entire cytoplasmic domain of ADGRV1 as partner of PDZD7 in NMR and fluorescence titrations experiments. […] Finally, we measured Kd values in the few micromolar range between the tandem P1P2 and the whole cytoplasmic domain and the last 13 residues of ADGRV1 by fluorescence experiments.

Sequence: VELRRIPIADTHL [ADGRV1pbm]
- Kd: 270 ± 21 µM
